Where two headings read alike, the source gives them in different places.

The AUC is concentration integrated over time. A lower AUC goes with less exposure. In general, Cmax refers to the peak of the concentration-time curve. For orientation: Tmax means the time at which the peak concentration occurs.

For one series, the system named is P-gp. More on the design: method as in PMID 16557452. The conditions noted are these: Caco-2 cell monolayer; cited from earlier work.
Series [1] in a line: Rat plasma pharmacokinetics after 10-day vehicle/SLE and digoxin or GE. The class given is in vivo, Sprague-Dawley rats. Particulars: rats; for AUC / Cmax / AUC(0-inf) / MRT inf / Tmax / half-life: female, Sprague-Dawley, rat, plasma, po; for AUC / Cmax / AUC(0-inf) / MRT inf / Tmax / half-life / AUCINF_obs / Cl_F_obs: day 11 digoxin 0.5 mg/kg or GE 120 mg/kg ig; for AUC(0-inf): read-out: AUCINF_obs; for MRT inf: read-out: MRTINF_obs; for Tmax: read-out: Tmax; for half-life: read-out: t1/2 (converted). The method, then: This study was carried out in strict accordance with the recommendations in the Guide for the Care and Use of Laboratory Animals of the National Institutes of Health. The protocol was approved by the Committee on the Ethics of Animal Experiments of the China Pharmaceutical University. All surgery was performed under sodium pentobarbital anesthesia, and all efforts were made to minimize suffering. […] The rats were fed with standard laboratory food and water and fasted overnight but with free access to water before the test. To evaluate the effect of long-term treatment with SLE on the pharmacokinetics of ginsenosides, 24 rats were also divided into four groups (group I∼ group IV) with 6 animals each. […] On the 11th day, digoxin was administered intragastrically to rats (group I and group II) at a single dose of 0.5 mg/kg, GE was administered intragastrically to rats (group III and group IV) at a single dose of 120 mg/kg. […] Plasma was obtained by centrifugation at 5000 g for 10 min and stored at −20°C before analysis. The plasma / cell samples were extracted using a liquid–liquid extraction technique. To each tube containing 100 µL plasma, 10 µL internal standard (digoxin, 1.0 µg/mL) and 1.0 mL of n-butanol were added. The mixture was then vortex-extracted for 2 min, and centrifuged for 10 min at 10,000 g. […] The plasma concentration-time curves of ginsenosides in rats were obtained by plotting the mean plasma concentrations versus time. Pharmacokinetic parameters were calculated using the WinNonlin 6.3 program (Pharsight Inc., Mountain View, CA). The elimination half-life (t 1/2) value was calculated as 0.693/β, where β is the elimination rate constant calculated from the terminal linear portion of the log plasma concentration-time curve. The total areas under the plasma concentration- time curve from time 0 to the last quantifiable time point (AUC0-t) and from time 0 to infinity (AUC0-∞) were calculated using the log trapezoidal rule. [drawing 3] The maximum plasma concentrations (C max) for ginsenosides were obtained by visual inspection of the plasma concentration-time curve, whereas the initial drug concentration (the extrapolated concentration at zero time) of the drug after intravenous injection was calculated by back-extrapolation of the plasma concentration-time curve to the y-axis.

A further series has as its system Caco-2 cell monolayer. Description: Transport of digoxin and ginsenosides across Caco-2 cell monolayer (efflux ratio). The class given is in vitro ADME, human. The gist of the method: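 Caco-2 monolayers (18-21 days, TEER >600 Ω·cm²) preincubated 1.5 h at 37 °C in HBSS pH 7.4 with SLE (2.0 or 10.0 µg/mL) or 1% ethanol on both sides. GE (100 µg/mL) then added apical or basolateral for 2 h; ginsenosides in receiver by LC-MS. ER = Papp B→A / Papp A→B; verapamil 10 µM positive control.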
Background: Passage across Caco-2 layers is used to estimate intestinal permeability.

The mark [2] stands for this setting: SLE 500 mg/kg ig once a day for 10 days.
Setting [3] is: control: vehicle once a day for 10 days.

Turning to `CC(C)=CCC[C@](C)(O[C@@H]1O[C@H](CO[C@@H]2O[C@H](CO)[C@@H](O)[C@H](O)[C@H]2O)[C@@H](O)[C@H](O)[C@H]1O)[C@H]1CC[C@]2(C)[C@@H]1[C@H](O)C[C@@H]1[C@@]3(C)CC[C@H](O[C@@H]4O[C@H](CO)[C@@H](O)[C@H](O)[C@H]4O[C@@H]4O[C@H](CO)[C@@H](O)[C@H](O)[C@H]4O)C(C)(C)[C@@H]3CC[C@]12C` [Rb1, ginsenoside Rb1], the “Transport by P-gp” value in the series on P-gp is “not be transported by P-gp”. Further, in series [1] (setting [2]), the AUC was determined as 25600 ± 1300 ng·h/mL, the Cmax stood at 736 ± 143 ng/mL, the AUC(0-inf) came out at 27000 ± 2380 ng·h/mL and the MRT inf stood at 33.5 ± 7.91 h. In series [1] (setting [2]), the Tmax stood at 9.6 ± 2.19 h, the half-life was 1160 ± 497 min, the AUCINF_obs stood at 27017 ± 2381 ng·h/mL and the Cl_F_obs is 0.0037 ± 0.0003 L/h. Moreover, in series [1] (setting [3]), the AUC came out at 14100 ± 5070 ng·h/mL, the peak level (Cmax) was 430 ± 135 ng/mL, the AUC(0-inf) amounted to 14300 ± 5180 ng·h/mL and the MRT inf was 28.1 ± 4.81 h. For the same compound, in series [1] (setting [3]), the Tmax was 10 ± 4.47 h, the half-life was 1030 ± 130 min, the AUCINF_obs is 14324 ± 5178 ng·h/mL and the Cl_F_obs is 0.0079 ± 0.0035 L/h. For the same compound, the “Increase of AUC (AUC0-∞) by 10 continuous days administration of SLE” value in series [1] (SLE 500 mg/kg x 10 days vs vehicle, GE ig on day 11) is recorded as 1.82 fold. In addition, the “Effect of verapamil on efflux ratio” value with Caco-2 cell monolayer (Caco-2 cells, 10 µM verapamil) is “decreased significantly”. In addition, in the series with Caco-2 cell monolayer (Caco-2 monolayer, SLE 2.0 and 10.0 µg/mL), the “Effect of SLE on BL-AP transport / efflux ratio” value is on record as “concentration dependently decrease”.
